From patent US11453642B2, “Oxygenated amino- or ammonium-containing sulfonic acid, phosphonic acid and carboxylic acid derivatives and their medical use” (GRI BIO, INC., priority 2011, dated 2022)
Read-outs that look alike come from different tables or passages of the source.

Test system: DTH response in mice
Format: in vivo
Conditions: DTH; for Inhibition of mouse ear swelling: 24 h after challenge; for inhibition relative to that of the high dose of dexamethasone: versus dexamethasone 1 mg/kg
Experimental: The anti-inflammatory and anti-allergic effects of compounds 1a and 1c were assessed in a mouse model of skin delayed-type hypersensitivity (DTH) reactions and compared to a vehicle control and to the reference drug dexamethasone. DTH reactions are antigen-specific cell-mediated immune responses, driven primarily by T helper type 1 (Th1) cells, similar to the tuberculin immunization response. The immune reaction induced by an ovalbumin challenge to animals previously sensitized with ovalbumin in Complete Freund's Adjuvant, is characterized by swelling (edema) at the site of challenge, e.g. the mouse ear. Dexamethasone, an anti-inflammatory steroid, reduces cell-mediated immune responses and was employed to validate the responsiveness of the assay to pharmacological treatment.
Female BALB/cJW mice were bred at the University of Lodz, Lodz, Poland and housed in groups of 8 in makrolon cages with a 12 h light-dark cycle. Mice were given free access to food (Agropol S.j., Motycz, Poland) and water.
Sensitization: The protein antigen, ovalbumin, was reconstituted in PBS at 4 mg/ml. An ovalbumin-CFA emulsion was prepared by mixing the protein solution with the CFA suspension at a ratio of 1:1, using two Luer-lock syringes. The emulsion was tested by putting a drop of emulsion onto PBS; if the emulsion remained as a tight droplet on the PBS, the emulsion was deemed ready. Mice were sensitized by subcutaneously injecting 25 μL of emulsion into each side of the tail (100 μg ovalbumin per mouse).
Challenge: On the sixth day after sensitization, DTH was elicited by challenging animals subcutaneously (gauge 30 needle, B. Braun Melsungen, Melsungen, Germany) in the left ears with 10 μL of a 1% suspension of heat-aggregated ovalbumin (HOVA) (100 μg ovalbumin per mouse). The right ears were administered subcutaneously with PBS and served to determine the individual differences in ear thicknesses. HOVA was prepared by heating a 5% solution of ovalbumin in saline for 1 h at 80° C. with occasional swirling. After cooling to room temperature and centrifugation (400 g. 10 min at 4° C.), the pellet was washed twice with saline, resuspended at 2% in PBS and aliquots stored at −30° C. Before injection, HOVA was diluted with an equal volume of PBS and sonicated. Ear thickness was measured with a precise spring-loaded caliper (Art. No. 7309, Mitutoyo, Kawasaki, Japan) before challenge, and 24 h after challenge.
Sensitization, challenge and ear thickness measurement were performed under anesthesia (ketamine 80 mg/kg plus xylazine 8 mg/kg, intraperitoneally).
The anti-inflammatory effects of compounds 1a and 1c were compared to a vehicle control (0.5% methyl cellulose solution) and to the reference drug, dexamethasone. Test compounds were given at 25 or 100 mg/kg orally by gavage (Art. No. 432093, Harvard Apparatus GmbH, March-Hugstetten, Germany) 16 h and 3 h before sensitization and then twice daily with the final dose given 3 h prior to ear challenge (a total of 14 administrations). Dexamethasone was given at 0.1 or 1 mg/kg orally by gavage 3 h before sensitization and once daily with the final dose given 3 h prior to antigen challenge (a total of 7 administrations). All administrations were given in a volume of 10 ml/kg.
To account for individual variability, the increase in right ear thickness, before and 24 h after administration of PBS, was subtracted from the HOVA-induced increase in left ear thickness. The increase in ear thickness was calculated by the difference between ear thickness before and 24 h after antigen challenge. Percent inhibition of ear swelling was calculated according to the following formula: % inhibition=100×(IETvehicle−IETcompound)/IETvehicle where IET=(ET24 hrs pc−ETpredose)HOVA-treated ears−(ET24 hrs pc−ETpredose)PBS-treated ears • (IET, increase ear thickness; ET, ear thickness; pc, post challenge)
Mean and standard deviation (SD) were calculated from individual ear edema values. […]

[1] = 100 mg/kg orally twice daily (14 administrations)

CCCCCCCCCCCCCCCCN(C)CC(O)CS(=O)(=O)O (centres unmarked) [Compound 1a, 2-hydroxy-3-(N-methylhexadecylammonio)propane-sulfonate]
Inhibition of mouse ear swelling (25 mg/kg orally twice daily (14 administrations)): 49% | Inhibition of mouse ear swelling [1]: 52% | inhibition relative to that of the high dose of dexamethasone: up to 98%

CCCCCCCCCCCCN(C)CC(O)CS(=O)(=O)O (centres unmarked) [Compound 1c, 2-hydroxy-3-(N-methyldodecylammonio)propanesulfonate]
Inhibition of mouse ear swelling [1]: 41% | inhibition relative to that of the high dose of dexamethasone: 77%
